In patent publication US20070208166A1, “Tao Kinase Modulators And Method Of Use” (Exelixis, Inc., priority 2003, published 2007):

Key:
Format in all cases: biochemical
TAO = target: T1, TAO (Homo sapiens, UniProt Q9UL54); assay: TAO Luciferase-Coupled Chemiluminescent Kinase assay (LCCA); conditions: 2 μM ATP, 10 μM MBP, 12 nM TAO, 2 hours; read-out: TAO inhibition IC50
T1 sequence (Q9UL54 1-1235): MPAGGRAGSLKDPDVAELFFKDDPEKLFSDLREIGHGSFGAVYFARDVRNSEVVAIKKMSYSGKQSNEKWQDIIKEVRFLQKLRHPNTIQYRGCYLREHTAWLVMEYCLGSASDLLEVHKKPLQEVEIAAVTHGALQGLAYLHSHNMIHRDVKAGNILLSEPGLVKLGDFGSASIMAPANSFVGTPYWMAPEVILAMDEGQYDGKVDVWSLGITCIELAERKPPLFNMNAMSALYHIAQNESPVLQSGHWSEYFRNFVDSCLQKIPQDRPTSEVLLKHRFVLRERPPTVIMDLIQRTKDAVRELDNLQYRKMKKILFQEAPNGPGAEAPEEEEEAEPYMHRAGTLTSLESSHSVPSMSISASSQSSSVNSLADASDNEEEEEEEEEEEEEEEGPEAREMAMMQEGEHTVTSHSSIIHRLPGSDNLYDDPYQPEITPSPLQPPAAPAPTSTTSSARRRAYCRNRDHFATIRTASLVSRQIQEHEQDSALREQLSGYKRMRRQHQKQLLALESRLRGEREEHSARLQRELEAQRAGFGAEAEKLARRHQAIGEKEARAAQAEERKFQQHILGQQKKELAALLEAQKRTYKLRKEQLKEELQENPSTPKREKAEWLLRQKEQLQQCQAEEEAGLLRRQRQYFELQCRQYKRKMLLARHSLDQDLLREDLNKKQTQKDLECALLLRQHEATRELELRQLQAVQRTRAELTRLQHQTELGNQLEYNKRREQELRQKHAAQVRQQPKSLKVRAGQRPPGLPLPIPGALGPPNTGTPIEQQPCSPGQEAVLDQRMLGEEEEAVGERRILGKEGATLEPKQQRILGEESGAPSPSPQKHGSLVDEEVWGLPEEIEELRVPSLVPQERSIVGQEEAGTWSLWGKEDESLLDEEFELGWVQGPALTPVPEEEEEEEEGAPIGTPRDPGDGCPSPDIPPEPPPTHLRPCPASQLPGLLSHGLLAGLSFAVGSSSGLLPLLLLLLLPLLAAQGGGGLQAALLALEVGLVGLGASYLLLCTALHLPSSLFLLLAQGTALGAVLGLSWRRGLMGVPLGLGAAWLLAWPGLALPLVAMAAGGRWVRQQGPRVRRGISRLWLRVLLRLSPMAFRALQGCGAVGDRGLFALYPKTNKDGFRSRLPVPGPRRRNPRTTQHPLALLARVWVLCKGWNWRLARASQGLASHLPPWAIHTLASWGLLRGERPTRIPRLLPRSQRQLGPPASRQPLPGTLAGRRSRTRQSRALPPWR
Method: (§1) Kinase activity and compound inhibition are investigated using one or more of the three assay formats described below. The ATP concentrations for each assay are selected to be close to the Michaelis-Menten constant (KM) for each individual kinase. Dose-response experiments are performed at 10 different inhibitor concentrations in a 384-well plate format. The data are fitted to four-parameter equation (2) below; where Y is the observed signal, X is the inhibitor concentration, Min is the background signal in the absence of enzyme (0% enzyme activity), Max is the signal in the absence of inhibitor (100% enzyme activity), IC50 is the inhibitor concentration at 50% enzyme inhibition and H represents the empirical Hill's slope to measure the cooperativity. Typically H is close to unity. Y=Min+(Max−Min)/(1+(X/IC50)ˆH) Equation (2) KIAA 1361 Assay: […]
(§2) TAO biochemical activity was assessed using a Luciferase-Coupled Chemiluminescent Kinase assay (LCCA) format. Kinase activity was measured as the percent ATP remaining following the kinase reaction. Remaining ATP was detected by luciferase-luciferin-coupled chemiluminescence. Specifically, the reaction was initiated by mixing test compounds, 2 μM ATP, 10 μM MBP and 12 nM TAO (baculovirus expressed human KIAA 1361 kinase domain 2-322) in a 20 uL assay buffer (20 mM Tris-HCL pH7.5, 10 mM MgCl2, 0.02% Triton X-100, 100 mM DTT, 2 mM MnCl2). The mixture is incubated at ambient temperature for 2 hours after which 20 uL luciferase-luciferin mix is added and the chemiluminescent signal read using a Wallac Victor^2 reader. The luciferase-luciferin mix consists of 50 mM BEPES, pH 7.8, 8.5 ug/mL oxalic acid (pH 7.8), 5 (or 50) mM DTT, 0.4% Triton X-100, 0.25 mg/nL coenzyme A, 63 uM AMP, 28 ug/mL luciferin and 40,000 units of light/mL luciferase.

JIK = target: T2, JIK (Homo sapiens, UniProt Q9H2K8); assay: JIK Luciferase-Coupled Chemiluminescent Kinase assay (LCCA); conditions: 2 μM ATP, 10 μM MBP, 6 nM JIK, 2 hours; read-out: JIK inhibition IC50
T2 construct: 6 nM JIK (baculovirus expressed human KIAA 1361 kinase domain2-318); made in house
T2 sequence (Q9H2K8 2-318): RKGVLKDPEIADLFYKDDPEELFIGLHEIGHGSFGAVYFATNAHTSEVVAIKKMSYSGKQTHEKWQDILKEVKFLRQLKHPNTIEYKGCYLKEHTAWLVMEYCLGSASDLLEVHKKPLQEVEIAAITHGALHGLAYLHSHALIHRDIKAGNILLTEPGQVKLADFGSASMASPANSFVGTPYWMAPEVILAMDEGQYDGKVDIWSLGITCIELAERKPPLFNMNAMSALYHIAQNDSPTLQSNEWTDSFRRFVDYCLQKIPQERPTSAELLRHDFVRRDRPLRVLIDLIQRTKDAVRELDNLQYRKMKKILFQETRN
Method: as §1
as §2, with “JIK” for “TAO”, “6” for “12”, “domain2-318)” for “domain 2-322)”, “HEPES,” for “BEPES,”, “mg/mL” for “mg/nL”

[1] = target: T3, KIAA 1361 (baculovirus expressed human KIAA 1361 kinase domain 2-322) (Homo sapiens, UniProt Q7L7X3); assay: KIAA 1361 Luciferase-Coupled Chemiluminescent Kinase assay (LCCA); conditions: 2 μM ATP, 10 μM MBP, 12 nM KIAA 1361, 2 hours; read-out: KIAA1361 inhibition IC50
T3 construct: human KIAA 1361 kinase domain 2-322; made in house
T3 sequence (Q7L7X3 2-322): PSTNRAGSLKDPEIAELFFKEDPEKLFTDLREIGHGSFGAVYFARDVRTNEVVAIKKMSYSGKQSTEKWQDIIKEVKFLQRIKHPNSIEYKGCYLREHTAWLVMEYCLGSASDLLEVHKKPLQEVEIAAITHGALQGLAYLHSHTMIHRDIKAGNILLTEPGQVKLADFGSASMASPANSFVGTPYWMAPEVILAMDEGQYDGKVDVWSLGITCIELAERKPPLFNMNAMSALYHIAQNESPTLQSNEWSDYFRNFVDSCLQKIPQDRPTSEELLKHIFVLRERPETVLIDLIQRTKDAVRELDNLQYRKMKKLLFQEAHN
Method: as §1
as §2, with “KIAA 1361” for “TAO”, “HEPES,” for “BEPES,”, “mg/mL” for “mg/nL”

| Structure (SMILES) | IC50 (TAO) [nM] | IC50 (JIK) [nM] | IC50 [1] [nM] |
| --- | --- | --- | --- |
| CCCCOc1ccc(NC(=O)N[C@@H](COCc2ccccc2)C(=O)NCCc2ccccc2)cc1 [Entry 21, N˜2˜-({[4-(butyloxy)phenyl]amino}carbonyl)-N-(2-phenylethyl)-O-(phenylmethyl)serinamide] | > 5000 | 50 to 500 | 50 to 500 |
| CC(NC(=O)c1ccc(OCc2ccccc2)cc1)C(=O)NC1CCc2ccccc2C1 (stereo not drawn) [Entry 19, N-[1-methyl-2-oxo-2-(1,2,3,4-tetrahydronaphthalen-2-ylamino)ethyl]-4-[(phenylmethyl)oxy]benzamide] | 500 to 5000 | 50 to 500 | 50 to 500 |
| O=C(CN1CCN(S(=O)(=O)CCc2cccc3ccccc23)CC1)Nc1ccccn1 [Entry 41, 2-{4-[(2-naphthalen-1-ylethyl)sulfonyl]piperazin-1-yl)-N-pyridin-2-ylacetamide] | 50 to 500 | < 50 | < 50 |
| CCc1ccc(-c2ccc(C(=O)NCC(=O)N[C@H]3CCCc4ccccc43)cc2)cc1 [Entry 61, 4′-ethyl-N-{2-oxo-2-[(1S)-1,2,3,4-tetrahydronaphthalen-1-ylamino]ethyl}biphenyl-4-carboxamide] | < 50 | < 50 | < 50 |
| COc1cccc(OCC(=O)NCC(=O)NC2CCCc3ccccc32)c1 (stereo not drawn) [Entry 28, N˜2˜-({[3-(methyloxy)phenyl]oxy}acetyl)-N-(1,2,3,4-tetrahydronaphthalen-1-yl)glycinamide] | 500 to 5000 | 50 to 500 | 500 to 5000 |
| O=C(CCN1CCCCC1)NCC(=O)NC1CCCc2ccccc21 (stereo not drawn) [Entry 88, N-[2-oxo-2-(1,2,3,4-tetrahydronaphthalen-1-ylamino)ethyl]-3-piperidin-1-ylpropanamide] | > 5000 | > 5000 | > 5000 |
| CCc1ccc(-c2ccc(C(=O)NCC(=O)Nc3cccc4ccccc34)cc2)cc1 [Entry 67, 4′-ethyl-N-[2-(naphthalen-1-ylamino)-2-oxoethyl]biphenyl-4-carboxamide] | 50 to 500 | < 50 | < 50 |
| CCc1ccc(-c2ccc(C(=O)NCC(=O)NCC3COc4ccccc4O3)cc2)cc1 (stereo not drawn) [Entry 65, N-{2-[(2,3-dihydro-1,4-benzodioxin-2-ylmethyl)amino]-2-oxoethyl}-4′-ethylbiphenyl-4-carboxamide] | > 5000 | > 5000 | > 5000 |
| CCc1ccc(-c2ccc(C(=O)NCC(=O)NC3CN(C(=O)OC(C)(C)C)Cc4ccccc43)cc2)cc1 (stereo not drawn) [Entry 95, 1,1-dimethylethyl 4-({N-[(4′-ethylbiphenyl-4-yl)carbonyl]glycyl}amino)-3,4-dihydroisoquinoline-2(1H)-carboxylate] | > 5000 | 500 to 5000 | > 5000 |
| CCCCCOc1ccc(C(=O)NC(C)C(=O)NC2CCc3ccccc3C2)cc1 (stereo not drawn) [Entry 9, N-[1-methyl-2-oxo-2-(1,2,3,4-tetrahydronaphthalen-2-ylamino)ethyl]-4-(pentyloxy)benzamide] | 500 to 5000 | 50 to 500 | 50 to 500 |
| O=C(COc1ccc(Br)cc1)NCC(=O)NC1CCCc2ccccc21 (stereo not drawn) [Entry 3, N˜2˜-{[(4-bromophenyl)oxy]acetyl}-N-(1,2,3,4-tetrahydronaphthalen-1-yl)glycinamide] | 50 to 500 | < 50 | 50 to 500 |
| CCc1ccc(-c2ccc(C(=O)NCC(=O)NC3CCCCC3)cc2)cc1 [Entry 53, N-[2-(cyclohexylamino)-2-oxoethyl]-4′-ethylbiphenyl-4-carboxamide] | > 5000 | > 5000 | > 5000 |
| CCc1ccc(-c2ccc(C(=O)NCC(=O)NCc3ccccc3)cc2)cc1 [Entry 52, 4-ethyl-N-{2-oxo-2-[(phenylmethyl)amino]ethyl}biphenyl-4-carboxamide] | > 5000 | > 5000 | > 5000 |
